Laboratory results reported in ChEMBL document CHEMBL1201862, “PubChem BioAssay data set” (2004).
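These data come from cells grown in 96-well plates and exposed to compound for 48 hours at five concentrations. GI50 marks 50% less growth.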 Activity calls are given as the source filed them. No stated cut-off is given here; in the data, active = GI50 up to about 1.1 µM and inactive = higher.

Assays:
Experiment in all cases: growth of human tumour cells (NCI), 48 h
SK-MEL-5 = tested on: SK-MEL-5
KM-20L2 = tested on: KM-20L2
NCI-H522 = tested on: NCI-H522
OVCAR-8 = tested on: OVCAR-8
SK-MEL-2 = tested on: SK-MEL-2
OVCAR-3 = tested on: OVCAR-3
SN12C = tested on: SN12C
RXF 393 = tested on: RXF 393
SK-OV-3 = tested on: SK-OV-3
A549 = tested on: A549
CCRF-CEM = tested on: CCRF-CEM
Malme-3M = tested on: Malme-3M
LXFL 529 = tested on: LXFL 529
HCT-116 = tested on: HCT-116
DLD-1 = tested on: DLD-1
KM12 = tested on: KM12
HCT-15 = tested on: HCT-15
COLO 205 = tested on: COLO 205
SNB-19 = tested on: SNB-19
DMS-273 = tested on: DMS-273
MOLT-4 = tested on: MOLT-4
HCC 2998 = tested on: HCC 2998
RXF 631 = tested on: RXF 631
XF498 = tested on: XF498
CAKI-1 = tested on: CAKI-1
SF-268 = tested on: SF-268
HOP-62 = tested on: HOP-62
IGROV-1 = tested on: IGROV-1
U-251 = tested on: U-251
SW-620 = tested on: SW-620
SR = tested on: SR
ACHN = tested on: ACHN
HOP-18 = tested on: HOP-18
DMS-114 = tested on: DMS-114
LOX IMVI = tested on: LOX IMVI
TK-10 = tested on: TK-10
EKVX = tested on: EKVX
RPMI-8226 = tested on: RPMI-8226
NCI-H226 = tested on: NCI-H226
K562 = tested on: K562
SF-295 = tested on: SF-295
UACC-62 = tested on: UACC-62
SK-MEL-28 = tested on: SK-MEL-28
OVCAR-4 = tested on: OVCAR-4
HOP-92 = tested on: HOP-92
SNB-78 = tested on: SNB-78
M19-MEL = tested on: M19-MEL
NCI-H23 = tested on: NCI-H23
SF-539 = tested on: SF-539
UO-31 = tested on: UO-31
OVCAR-5 = tested on: OVCAR-5

Structure (SMILES): O=c1c(C(c2ccc(Cl)cc2)c2c(O)c3ccccc3n(-c3ccccc3)c2=O)c(O)c2ccccc2n1-c1ccccc1
- GI50 (SK-MEL-5): 28.7 µM (inactive)
- GI50 (KM-20L2): 37.6 µM (inactive)
- GI50 (NCI-H522): 22.6 µM (inactive)
- GI50 (OVCAR-8): 29.4 µM (inactive)
- GI50 (SK-MEL-2): 19.5 µM (inactive)
- GI50 (OVCAR-3): 29 µM (inactive)
- GI50 (SN12C): 19.1 µM (inactive)
- GI50 (RXF 393): 36.6 µM (inactive)
- GI50 (SK-OV-3): 61.8 µM (inactive)
- GI50 (A549): 15.2 µM (inactive)
- GI50 (CCRF-CEM): 18.7 µM (inactive)
- GI50 (Malme-3M): 21.9 µM (inactive)
- GI50 (LXFL 529): 26.5 µM (inactive)
- GI50 (HCT-116): 24.8 µM (inactive)
- GI50 (DLD-1): 7.08 µM (inactive)
- GI50 (KM12): 68.4 µM (inactive)
- GI50 (HCT-15): 15.2 µM
- GI50 (COLO 205): 30.8 µM (inactive)
- GI50 (SNB-19): 17.7 µM (inactive)
- GI50 (DMS-273): 36.9 µM (inactive)
- GI50 (MOLT-4): 4.45 µM (inactive)
- GI50 (HCC 2998): 23.3 µM (inactive)
- GI50 (RXF 631): 19.1 µM (inactive)
- GI50 (XF498): 18.8 µM (inactive)
- GI50 (CAKI-1): 28.2 µM (inactive)
- GI50 (SF-268): 16.9 µM (inactive)
- GI50 (HOP-62): 28 µM (inactive)
- GI50 (IGROV-1): > 100 µM (inactive)
- GI50 (U-251): 16.9 µM (inactive)
- GI50 (SW-620): 34 µM (inactive)
- GI50 (SR): 7.43 µM (inactive)
- GI50 (ACHN): 7.67 µM (inactive)
- GI50 (HOP-18): > 100 µM (inactive)
- GI50 (DMS-114): 28.7 µM (inactive)
- GI50 (LOX IMVI): 18.8 µM (inactive)
- GI50 (TK-10): 67.8 µM (inactive)
- GI50 (EKVX): 17.2 µM (inactive)
- GI50 (RPMI-8226): 14.6 µM (inactive)
- GI50 (NCI-H226): 73.6 µM (inactive)
- GI50 (K562): 40.5 µM (inactive)
- GI50 (SF-295): 14.4 µM (inactive)
- GI50 (UACC-62): 13.3 µM (inactive)
- GI50 (SK-MEL-28): > 100 µM (inactive)
- GI50 (OVCAR-4): 32.1 µM (inactive)
- GI50 (HOP-92): 16.7 µM (inactive)
- GI50 (SNB-78): 48.8 µM (inactive)
- GI50 (M19-MEL): 48.1 µM (inactive)
- GI50 (NCI-H23): 11.1 µM (inactive)
- GI50 (SF-539): 19.1 µM (inactive)
- GI50 (UO-31): 22 µM (inactive)
- GI50 (OVCAR-5): > 100 µM (inactive)
